In publication PMC10111420, “Optimization of Host Cell-Compatible, Antimicrobial Peptides Effective against Biofilms and Clinical Isolates of Drug-Resistant Bacteria” (ACS Infectious Diseases, 2023):
In brackets after ≈: the same amount, converted by molar mass. Where a SMILES comes first, the peptide text is derived from it. [ ]: non-standard residue; d: D form.

Columns and labels:
[1] = system: K. pneumoniae clinical isolates; assay: microbe, parasite or virus in culture; conditions: clinical isolates
Procedure: Subcultures, prepared by inoculating 25 mL of fresh tryptic soy broth (TSB) with 200 μL of an overnight culture, were grown to log phase (OD600 = 0.3–0.6), after which cell counts were determined by measuring the OD600 (1.0 = 5 × 10^8 CFU/mL for E. coli, 4 × 10^8 CFU/mL for K. pneumoniae, 4 × 10^8 CFU/mL for P. aeruginosa, 1.5 × 10^8 CFU/mL for S. aureus). Bacterial cells were diluted to appropriate concentrations in TSB. We used the following clinical bacterial isolates of Klebsiella pneumoniae in this study: Strains KP6, KP46, NDM-1, KP396, and KP398 have been previously described.[43] ST58 strains C2, C3, and I2 are also described.[41] […] MRSA, […] S. aureus strain, is SAP400, a USA400 strain of community-acquired MRSA. […] The second independent set of K. pneumoniae isolates are previously described.[20],[21]
The antibiotics were serially diluted by a factor of 2:3 horizontally across 96-well plates from Corning, 25 μL per well. One column was reserved for controls. For the assays performed in the presence of RBC, type O+ human RBCs at 0 or 2.5 × 10^9 cells/mL were added in 50 μL aliquots to all wells. […] To assess bacterial growth in the assays with RBC, the OD600 was measured after a second-day inoculation with 10 μL of solution from the original plate added to 100 μL of sterile TSB followed by overnight incubation.
Experiments were repeated four to eight times independently, with pairs of replicate measurements on each 96-well plate. After overnight growth, optical densities were measured at 660 nm and the sterilized wells were identified by having O.D. < 0.08. Nonsterilized wells were nearly opaque with OD > 0.6. For each measurement, we recorded the largest dilution that sterilized the bacteria. Statistics are done on dilution numbers, rather than calculated concentrations, because only the former have normal distributions.

[2] = system: K. pneumoniae isolates; assay: Susceptibility of all K. pneumoniae isolates (both sets); assay type: cell-based, Klebsiella pneumoniae; conditions: both sets of clinical isolates
Excerpt: In parallel experiments, resistance of P. aeruginosa to multiple conventional antibiotics grew rapidly over just a few passages.[5] […] The mechanism of resistance avoidance is currently unknown. Further studies will be required to understand the mechanistic basis for the resistance avoidance of D-CONGA-Q7 against K. pneumoniae isolates. These insights will be particularly important for the advancement of resistance-avoiding AMPs into the clinic.

[3] = system: P. aeruginosa wound biofilms; assay: SEM of Tegaderm wound dressing, P. aeruginosa; assay type: in vivo, CD1 mice; conditions: dressing removed on Day 3, treated three times a day
Excerpt: The Tegaderm dressing used in the murine wound model is an excellent substrate for bacterial adhesion and biofilm formation.[5],[15] […] We imaged three to four randomly selected areas of each Tegaderm sample at two magnifications each. Each image is scored for the presence/absence of bacterial cells, either rod-shaped P. aeruginosa, ∼1 μm in diameter, or spherical MRSA cocci, ∼0.9 μm in diameter. Images are also scored for biofilm-like structures defined by having multiple bacteria embedded in an obvious three-dimensional matrix. These distinctions are shown by representative images of the fixed Tegaderm dressings in Figure 9A,B. In vehicle control samples, we observed that P. aeruginosa frequently forms an open, three-dimensional matrix in which many cells are entangled in μm-long fibers. We observed that MRSA also forms a matrix in which cells are close-packed in strands that comprise a large-scale mesh. Every SEM image (68/68) from vehicle control samples of the two bacteria contained obvious visible bacteria, and most of these images contained ≥50 individual cells. In samples from peptide-treated animals, 57 of 68 (84%) of images had no visible bacteria. […] We performed a statistical analysis of observed bacteria and biofilms using the binomial equation. P-values for all comparisons of treated vs vehicle were less than 0.001. […]

[4] = system: wound infections; assay: Murine wound model, once or twice per day dosing and viscous polymer formulations; assay type: in vivo, mice; conditions: 75 μg of peptide in 20 μL of buffer (PBS)
Excerpt: Preliminary data had shown that once per day treatments in a simple aqueous vehicle were ineffective against wound infections in this model, see Figure S2. Three times per day is required for efficacy in simple media, Figure 8. Therefore, we also tested the effectiveness of D-CONGA-Q7 formulated in aqueous suspensions of carboxymethyl cellulose and Xanthan gum, which are anionic carbohydrate polymers that create highly viscous solutions at ∼1% w/v concentration. […] Clinically useful formulations of these peptides may be straightforward to develop.
Figure S2. Activity of D-CONGA-Q7 in wound model using 1x and 2x per day administration. Experiments were performed as described in main text, except that treatments with 75 μg of peptide in 20 μL of buffer were administered only once or twice per day. Bacterial […]
in PBS. Also, Tegaderm biofilm formation is not inhibited by peptide under these conditions.
Results for three times per day administration are shown in Figs. 8&9 of the main manuscript.
(1 picture or pasted object on this page, not shown here)
Radial diffusion results Murine wound infection
A C 6 hour incubation E 10 Once per day treatment with:
1.0 Buffer and viscous polymers D-CONGA-Q7 in 0.75% CMC
Peptide concentration (µM)
B D 24 hour incubation Once per day treatment with:
Buffer and viscous polymers 0.75% XG Vehicle only
1.0% XG D-CONGA-Q7 in 0.75% XG […]

[5] = system: Acinetobacter baumannii (PDR) Tulane isolate; conditions: PDR) Tulane isolate
[6] = Post-surgery mouse monitoring (weight, wound condition); conditions: monitored every day for 14 days, four mice per group, P. aeruginosa and MRSA infected mice, versus vehicle control
Procedure: In this model, a deep surgical punch wound, created on the dorsal surface of healthy adult CD1 mice is stabilized with a silicone ring to prevent healing by contraction, and then, covered with a Tegaderm dressing. The wound bed, with a volume of ∼20 μL, is immediately infected with 1 × 10^5 cfu of luciferase-producing P. aeruginosa or MRSA.
Female CD1 mice at 8–12 weeks of age were anesthetized via intraperitoneal injection of ketamine and xylazine at doses of 90 and 10 mg/kg, respectively. Their dorsal surface was depilated using an electric razor and scrubbed with a chlorhexidine solution. A full-thickness biopsy wound was generated using a 5 mm biopsy punch (Integra). To function as a splint for the wound, a 0.5 mm thick silicon (Invitrogen) ring with an outer diameter of 10 mm and a hole with a 5 mm diameter was placed over the wound and held to the skin with a surgical adhesive. The entire silicon ring was then covered with Tegaderm (3 M), and further adhered using 4-0 braided silk interrupted sutures (Ethicon). Mice were given 0.05 mg/kg buprenorphine immediately following surgery as well as daily for the next 2 days to alleviate pain from the procedure. […] Weight, activity, posture, coat condition, and wound condition were monitored each day throughout the duration of the experiment to ensure the well-being of each mouse. […]

For `CC(C)C[C@@H](NC(=O)[C@@H](CCC(N)=O)NC(=O)[C@@H](CCCNC(=N)N)NC(=O)[C@@H](CCCNC(=N)N)NC(=O)[C@@H](C)NC(=O)[C@@H](Cc1c[nH]c2ccccc12)NC(=O)[C@@H](CCCNC(=N)N)NC(=O)[C@H](N)CCCNC(=N)N)C(=O)N[C@H](C)C(=O)N[C@H](Cc1ccccc1)C(=O)N[C@H](C)C(=O)N[C@H](Cc1ccccc1)C(=O)N[C@H](CCCNC(=N)N)C(=O)N[C@H](CCCNC(=N)N)C(N)=O` [D-CONGA-Q7] (H-[dR][dR][dW][dA][dR][dR][dQ][dL][dA][dF][dA][dF][dR][dR]-NH2; N-terminus assumed), the “MIC, KP 6” value [1] was 3.2 µM (≈ 6.05 µg/mL), the “MIC, KP 46” value [1] was 2.2 µM (≈ 4.16 µg/mL) and the “MIC, KP 398” value [1] was 3.8 µM (≈ 7.18 µg/mL). For the same compound, the “MIC, KP (CRE)” value [1] was 2.0 µM (≈ 3.78 µg/mL), the “MIC, KP ATCC 33495” value [1] was 2.4 µM (≈ 4.53 µg/mL) and the “MIC, KP ST258 C2” value [1] was 8.9 µM (≈ 16.8 µg/mL). The “MIC, KP ST258 C3” value [1] was 14 µM (≈ 26.4 µg/mL), the “MIC, KP ST258 I2” value [1] was 1.4 µM (≈ 2.64 µg/mL) and the “MIC, KP ST396” value [1] was 1.9 µM (≈ 3.59 µg/mL). For the same compound, the “K. pneumoniae isolates susceptible” value [2] was 28 of 29, the “P. aeruginosa: Bacteria present (SEM images of Tegaderm)” value ([3]; images with bacteria / all random images) was 8/33 and the “P. aeruginosa: Biofilm present (SEM images of Tegaderm)” value ([3]; images with biofilm / all random images) was 0/33. The “Tegaderm biofilm formation, once or twice per day administration” value [4] was “not inhibited”, the “Wound bacterial burden, once or twice per day administration” value [4] was “not reduced significantly” and the “MIC, AB (PDR)Tulane” value [5] was 1.1 µM (≈ 2.08 µg/mL). For the same compound, the “Weight loss of mice” value [6] was “did not demonstrate any differential weight loss” and the Wound condition score [6] was “no significant difference”.
